# Experimental data: PMC4125160, “Neurotoxicity and Mode of Action of N, N-Diethyl-Meta-Toluamide (DEET)” (PLoS ONE, 2014)
# Read-outs that look alike come from different tables or passages of the source.
# What was measured:
# [1] = test system: housefly larval central nervous system; assay: Neurophysiological recordings of CNS nerve discharge in housefly larvae; design: species or system Musca domestica; conditions: for EC50: Musca domestica
# Method: Neurophysiological recordings were performed on the central and peripheral nervous systems of larval Musca domestica. Glass pipette electrodes were pulled from borosilicate glass capillaries on a P-1000 Flaming/Brown micropipette puller (Sutter Instrument, Novato CA, USA). For CNS recordings, it was first excised from the larvae and placed in a separate dish with physiological saline (200 µL) containing: 157 mM NaCl, 3 mM KCl, 2 mM CaCl2, and 4 mM HEPES, pH = 7.25. The CNS was manually transected posterior to the cerebral lobes to disrupt the blood-brain barrier and enhance chemical penetration. Any convenient peripheral nerve trunks were pulled into a recording suction electrode. Amplification and digitization of descending electrical activity originating from the CNS were converted on-line into a rate plot, expressed in Hz (MacLab analog to digital converter hardware and LabChart 7 software, ADInstruments, Colorado Springs, CO, USA). […] After a baseline was established, the CNS preparation was directly exposed to test compound by adding 200 µL of solution to the bath containing 200 µL of saline. The final concentration of solvent in the bath was 0.1% DMSO. Each concentration was recorded for 3–5 min prior to the addition of the next drug concentration. […] Each drug concentration was replicated 3-5 times.
# [2] = test system: octopamine receptors of Sf21 cells; assay: Calcium fluorescence assay in Sf21 cells; format: cell-based
# Method: The Sf21 insect cell line was obtained from a commercial supplier (Invitrogen, Carlsbad, CA, USA) and maintained in log phase culture in Trichoplusia ni Medium-Formulation Hink (TNM-FH) from Sigma-Aldrich (St. Louis, MO, USA), supplemented with 10% fetal bovine serum and 100 U/ml penicillin and streptomycin (Sigma-Aldrich). Cells were cultured in a non-humidified environment and maintained at 27°C. Sf21 cells were passaged every 3–5 days according to manufacturer's instructions, and maintained for about 30 passes before being replaced by fresh cells.
# Sf21 cells were plated into 96-well black-wall, clear bottom plates 24 h before calcium fluorescence assay. […] The octopamine receptor antagonist phentolamine (100 µM) was co-incubated with cells for 1 h before drug challenge. Phentolamine, octopamine, and DEET were dissolved in water, while propoxur was dissolved in 100% DMSO to make a stock solution, and in the assay, DMSO was kept to 0.1%. The experiment was repeated in triplicate with different plates of cells to obtain means and SEMs for each experimental condition.
# firefly light organ = assay: In vivo assay for effects on firefly light organ; design: species or system Photinus pyralis
# Method: Adult firefly beetles (Photinus sp.) were collected locally (Nashville, TN) and housed in well-ventilated chambers with tree leaves. The animals had free access to 10% sucrose solution. Chemicals were dissolved in absolute ethanol and 1 µL was topically applied directly to the ventral light organ with the use of a manual pipettor. Prior to DEET application, the beetles were immobilized with molten parafilm and were mounted on corrugated cardboard for the duration of the study. Due to the time required for bioactivation of CDM, insects were treated with 1 µL of CDM and were released back into the holding chamber for three hours. After three hours, they were mounted in the previously described manner and monitored for activation of the lantern. Photographs were captured with a handheld camera (Canon PowerShot SX110 IS). Pictures were captured within five minutes, four hours, and 10 minutes post application for DEET, CDM, and propoxur, respectively. DEET- and propoxur-treated insects were monitored for at least 1 hour post exposure to ensure the response was not slow acting. The original photographs were cropped and background shadows were enhanced to increase detail of the insect using Adobe Photoshop PS5 (Adobe Systems, San Jose, CA, USA). The color or brightness of the light organ was not manipulated in any way during post-processing of the image.
# [3] = molecular target: T1, Aedes aegypti AChE (AeAChE) (Aedes aegypti, UniProt Q6A2E2); assay: AChE inhibition, Ellman assay; format: biochemical
# T1 construct: Homogenate enzymes were prepared from groups of ten non-blood fed adult female mosquitoes; from tissue; host or cells: whole adult female mosquitoes, supernatant of homogenate
# From the text: (§1) In vitro biochemical assays utilized five acetylcholinesterase (AChE) enzymes. Recombinant human AChE (hAChE) was purchased from a commercial source (lyophilized powder, Sigma C1682, St. Louis, MO, USA). Homogenates to prepare Anopheles gambiae AChE (AgAChE) were obtained from the wild type G3 strain and the resistant AKRON strain (BEI Resources; http://www.beiresources.org/). AKRON mosquitoes (from Benin and donated by M. Akogbeto) have both knockdown resistance (kdr) to pyrethroids (L1014F sodium channel mutation) and the G119S AChE mutation (ace-1R), which confers resistance to carbamates, [15]. Both strains were cultured in the Emerging Pathogens Institute, University of Florida, Gainesville, FL, USA from eggs provided by the Center for Disease Control, Atlanta, GA, USA. Homogenates were also used to prepare Aedes aegypti AChE (AeAChE) from mosquitoes provided by the CMAVE, USDA-ARS, Gainesville, FL, USA; Musca domestica AChE (MdAChE) from flies cultured in the Department of Entomology and Nematology, Medical Entomology Laboratory, University of Florida, Gainesville, FL, USA); and Drosophila melanogaster AChE (DmAChE) from flies (Oregon-R strain) cultured in the Emerging Pathogens Institute, University of Florida, Gainesville, FL, USA. Homogenate enzymes were prepared from groups of ten non-blood fed adult female mosquitoes, five whole bodied Drosophila, or three Musca heads homogenized in 1 mL of ice-cold sodium phosphate buffer (0.1 M sodium phosphate, pH 7.8) with an electric motor driven glass tissue homogenizer. The homogenate was centrifuged at 5000×g using a Sorvall Fresco refrigerated centrifuge at 4 °C for 5 minutes. The supernatant was used as the enzyme source, and all enzyme preparations contained 0.3% (v/v) triton X-100 and 1 mg/ml BSA. Prior to use, the recombinant human enzyme was diluted 500-fold into sodium phosphate buffer containing triton X-100 and 1 mg/ml BSA.
# (§2) Inhibition of AChE was determined using the Ellman assay and was based on the method outlined in Carlier et al.. Briefly, enzyme solution (10 µL) was added to each well of a 96-well micro assay plate, along with 20 µL of inhibitor in DMSO/saline suspension, and 150 µL of sodium phosphate buffer. Final concentration of DMSO was 0.1% in all incubations. The plate was incubated at 25 °C for ten minutes. Ellman assay reagents, acetylthiocholine iodide (0.4 mM, final concentration) and 5,5′-dithiobis-(2-nitro)benzoic acid (0.3 mM, final concentration), were prepared fresh and 20 µL was added to the enzyme to initiate the reaction.
# [4] = molecular target: T2, Anopheles gambiae AChE (AgAChE), wild type G3 strain (Anopheles gambiae, UniProt Q869C3); assay: AChE inhibition, Ellman assay; format: biochemical
# T2 construct: Homogenate enzymes were prepared from groups of ten non-blood fed adult female mosquitoes; from tissue; host or cells: whole adult female mosquitoes, G3 strain, supernatant of homogenate
# From the text: as §1, §2
# [5] = molecular target: T3, Drosophila melanogaster AChE (DmAChE) (Drosophila melanogaster, UniProt P07140); assay: AChE inhibition, Ellman assay; format: biochemical; conditions: mean, n = 3; read-out: IC50 (95% CI)
# T3 construct: five whole bodied Drosophila, or three Musca heads homogenized; from tissue; host or cells: whole Drosophila (Oregon-R), supernatant of homogenate
# From the text: as §1, §2
# [6] = molecular target: T4, AKRON AgAChE (G119S AChE mutation) (Anopheles gambiae, UniProt Q869C3, G280S); assay: AChE inhibition, Ellman assay; format: biochemical
# T4 construct: Homogenate enzymes were prepared from groups of ten non-blood fed adult female mosquitoes; from tissue; host or cells: whole adult female mosquitoes, AKRON strain, supernatant of homogenate
# From the text: as §1
# as §2, with “reaction. Changes in absorbance were recorded by a DYNEX Triad spectrophotometer (DYNEX Technologies, Chantilly, VA, USA) at 405 nm. Enzyme concentrations used were within the linear range, therefore eliminating the need for protein quantification.” for “reaction.”
# [7] = molecular target: Musca domestica AChE (MdAChE) (Musca domestica, UniProt Q7YWJ9); assay: AChE inhibition, Ellman assay; format: biochemical; conditions: mean, n = 3; read-out: IC50 (95% CI)
# From the text: as §1
# as §2, with “reaction. Changes in absorbance were recorded by a DYNEX Triad spectrophotometer (DYNEX Technologies, Chantilly, VA, USA) at 405 nm. Enzyme concentrations used were within the linear range, therefore eliminating the need for protein quantification.” for “reaction.”
# [8] = molecular target: T5, Recombinant human AChE (hAChE) (Homo sapiens, UniProt P22303); assay: AChE inhibition, Ellman assay; format: biochemical; conditions: mean, n = 3; read-out: IC50 (95% CI)
# T5 construct: purchased Sigma C1682
# From the text: as §1
# as §2, with “reaction. Changes in absorbance were recorded by a DYNEX Triad spectrophotometer (DYNEX Technologies, Chantilly, VA, USA) at 405 nm. Enzyme concentrations used were within the linear range, therefore eliminating the need for protein quantification.” for “reaction.”
# acetylcholinesterase = assay: AChE inhibition, Ellman assay, summary statements across enzymes; format: biochemical; conditions: concentrations up to 10 mM, all enzyme preparations
# From the text: as §1, with “The supernatant was used as the enzyme source, and all enzyme preparations contained 0.3% (v/v) triton X-100 and 1 mg/ml BSA. Prior to use, the recombinant human enzyme was diluted 500-fold into sodium phosphate buffer containing triton X-100 and 1 mg/ml BSA.” left out
# Inhibition of AChE was determined using the Ellman assay and was based on the method outlined in Carlier et al.. […] Changes in absorbance were recorded by a DYNEX Triad spectrophotometer (DYNEX Technologies, Chantilly, VA, USA) at 405 nm. Enzyme concentrations used were within the linear range, therefore eliminating the need for protein quantification.
# [9] = test system: neuromuscular junction of third instar Musca domestica larvae; assay: Neuromuscular junction recordings of evoked EPSP in housefly larvae; conditions: toluene at 5 mM
# Method: Neuromuscular recordings of the evoked excitatory postsynaptic potential (EPSP) were performed on third instar housefly larvae, essentially as described previously. In short, the maggot was immobilized with pins, and the nervous and musculature systems were exposed. The preparation was then bathed in saline containing: 140 mM NaCl, 0.75 mM CaCl2, 5 mM KCl, 4 mM MgCl2, 5 mM NaHCO3, and 5 mM HEPES (pH = 7.25). The nerves were severed from the base of the CNS, which was removed, and a lateral nerve trunk innervating the longitudinal muscles was drawn into a suction electrode filled with saline. Stimuli were applied at 1 volt and of 0.2 sec duration to elicit a contraction from the longitudinal muscles. The stimulated muscle was then impaled with a recording glass capillary microelectrode filled with 1 M KCl to record effects on the evoked EPSP and membrane potential. Signals from all recordings were amplified and digitized with the use of the MacLab. Chemicals were applied to the preparation directly by hand pipetting 150 µL of solution into the bath volume of 150 µL.
# [10] = test system: housefly larval central nervous system; assay: Neurophysiological recordings of CNS nerve discharge in housefly larvae; conditions: Musca domestica; transected CNS; value (95% CI); read-out: EC50, excitation of nerve firing
# rat Nav 1.4 channel = test system: rat Nav 1.4 channel; design: method as in ref 12 = [12]; 12 Scior T , Martinez-Morales E , Cruz S , Salinas-Stefanon E ( 2009 ) In silico modeling of toluene binding site in the pore of voltage-gate sodium channel . J Receptor Ligand Channel Res 2 : 1 – 9 .; conditions: in vitro ref 12; cited from earlier work
# [11] = mean, n = 3, read-out: IC50 (95% CI)
compound,measurement,setting,value
"NCC(O)c1ccc(O)cc1 (centres unmarked) [Octopamine, octopamine]",EC50,"[1]; Fig. 3B, read-out: excitatory EC50",0.11 mM
same,increase in calcium fluorescence,"[2]; 100 µM, over control cells",ca. 50%
"Cc1cc(Cl)ccc1N=CN(C)C [CDM, chlordimeform]",lantern illumination,firefly light organ; 1 µg topically on light organ,incomplete activation of the light organ
same,duration of glow of the entire lantern,firefly light organ; 5 µg,approximately four
same,lantern illumination,firefly light organ; 5 µg topically on light organ,"bright, constant glow of the entire lantern"
"Nc1ccncc1 [4-AP, 4-aminopyridine]",increase of maximal firing frequency above control levels,[1],6 fold
same,EC50,"[1]; Fig. 3D, firing declined at concentrations >1 mM, read-out: EC50, neuroexcitation",0.013 mM
"Cc1ccccc1 [Toluene, toluene]",IC50,[3],> 10 mM
same,IC50,[4],> 10 mM
same,IC50,[5],> 10 mM
same,IC50,[6],> 10 mM
same,IC50,[7],> 10 mM
same,IC50,[8],> 10 mM
same,AChE inhibition in words,acetylcholinesterase,inactive
same,effect on evoked EPSP in words,[9],excitatory
same,EC50,[10],1 mM
same,concentration blocking channels,rat Nav 1.4 channel,3 mM
"CCN(CC)CC(=O)Nc1c(C)cccc1C [Lidocaine, lidocaine]",IC50,[3]; [11],> 10 mM
same,IC50,[4]; [11],> 10 mM
same,IC50,[5],9.6 mM
same,IC50,[6],> 10 mM
same,IC50,[7],4.9 mM
same,effect on evoked EPSP in words,[9],antagonist
Cc1ccc(N(CC2=NCCN2)c2cccc(O)c2)cc1 [phentolamine],block of DEET-mediated neuroexcitation,"[1]; 100 µM phentolamine, DEET up to 500 µM",completely blocked
same,block of octopamine-mediated neuroexcitation,"[1]; 100 µM phentolamine, octopamine up to 3 mM",completely blocked
same,decline of maximal firing compared to propoxur alone,"[1]; 100 µM phentolamine, propoxur 1 µM, not statistically significant",21%
same,effect on neuroexcitation by propoxur,"[1]; 100 µM phentolamine, propoxur below 1 µM",no effect
same,effect on 4-AP mediated neuroexcitation,[1]; phentolamine,no effect
same,effect on DEET- and octopamine-mediated activation of calcium fluorescence,[2]; 100 µM phentolamine pre-exposure 1 h,abolished
